Data published in patent publication US9862716B2, “TRKA kinase inhibitors, compositions and methods thereof” (Merck Sharp & Dohme Corp., priority 2014, dated 2018).

Target: T1, human TrkA receptor (Homo sapiens, UniProt P04629)
T1 construct: host or cells: U2OS cells (PathHunter cell line)
Assay: DiscoverX PathHunter TrkA functional assay (NGF-stimulated U2OS cells)
Assay type: cell-based
Settings: U2OS cells expressing human TrkA-PK, Shc1-EA and p75NTR; compound 1 h, then NGF at ~80% of maximal response for 3 h; luminescence

T1 sequence (P04629 33-796): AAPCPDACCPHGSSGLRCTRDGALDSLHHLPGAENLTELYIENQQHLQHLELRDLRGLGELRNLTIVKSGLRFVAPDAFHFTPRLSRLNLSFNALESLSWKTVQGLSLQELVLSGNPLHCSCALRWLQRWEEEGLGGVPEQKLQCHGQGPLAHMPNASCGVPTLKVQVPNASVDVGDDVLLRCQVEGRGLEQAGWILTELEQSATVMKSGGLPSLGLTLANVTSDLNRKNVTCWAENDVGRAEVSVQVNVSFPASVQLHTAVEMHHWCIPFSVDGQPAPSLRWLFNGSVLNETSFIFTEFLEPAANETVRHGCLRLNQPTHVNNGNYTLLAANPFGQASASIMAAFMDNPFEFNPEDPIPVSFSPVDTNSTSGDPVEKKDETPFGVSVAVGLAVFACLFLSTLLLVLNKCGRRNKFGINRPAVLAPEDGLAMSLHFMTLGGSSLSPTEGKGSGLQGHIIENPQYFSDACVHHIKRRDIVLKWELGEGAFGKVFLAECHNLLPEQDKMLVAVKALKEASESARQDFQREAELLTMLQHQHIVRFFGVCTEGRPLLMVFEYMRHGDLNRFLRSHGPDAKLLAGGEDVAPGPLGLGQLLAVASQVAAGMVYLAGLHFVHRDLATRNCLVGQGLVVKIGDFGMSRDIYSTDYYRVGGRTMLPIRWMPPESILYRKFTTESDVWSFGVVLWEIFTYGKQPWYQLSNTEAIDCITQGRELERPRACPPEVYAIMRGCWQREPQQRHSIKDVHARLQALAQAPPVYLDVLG

IC50 [nM] | Compound
1.3 | CN(C)C(=O)c1ccn2c(NC(=O)c3ccc(C(F)(F)F)c(-c4ccn(C)n4)c3)c(-c3ccccc3)nc2c1 [Compound 28, N,N-dimethyl-3-({[3-(1-methyl-1H-pyrazol-3-yl)-4-(trifluoromethyl)phenyl]carbonyl}amino)-2-phenylimidazo[1,2-a]pyridine-7-carboxamide]
8.2 | O=C(Nc1c(-c2ccccc2)[nH]c2ccccc12)c1cc(-c2ncccn2)c(C(F)(F)F)cc1F [Compound 76, 2-fluoro-N-(2-phenyl-1H-indol-3-yl)-5-pyrimidin-2-yl-4-(trifluoromethyl) benzamide]
3.9 | Cn1ccc(-c2cc(C(=O)Nc3c(-c4ccccc4)nc4cccnn34)ccc2C(F)(F)F)n1 [Compound 6, 3-(1-methyl-1H-pyrazol-3-yl)-N-(2-phenylimidazo[1,2-b]pyridazin-3-yl)-4-(trifluoromethyl) benzamide]
1.4 | Cn1ccc(-c2cc(C(=O)Nc3c(-c4ccccc4)nc4cc(C(=O)N5CCC5)ccn34)ccc2C(F)(F)F)n1 [Compound 29, N-[7-(azetidin-1-ylcarbonyl)-2-phenylimidazo[1,2-a]pyridin-3-yl]-3-(1-methyl-1H-pyrazol-3-yl)-4-(trifluoromethyl) benzamide]
1 | CC(c1ccn2c(NC(=O)c3ccc(C(F)(F)F)c(-c4ccn(C)n4)c3)c(-c3ccccc3)nc2c1)N(C)C (single isomer, unassigned) [Compound 56, (R or S)-N-{7-[1-(dimethylamino)ethyl]-2-phenylimidazo[1,2-a]pyridin-3-yl}-3-(1-methyl-1H-pyrazol-3-yl)-4-(trifluoromethyl) benzamide]
3.1 | Cn1ccc(-c2cc(C(=O)Nc3c(-c4ccccc4)nc4cc(CNS(C)(=O)=O)ccn34)ccc2C(F)(F)F)n1 [Compound 84, 3-(1-methyl-1H-pyrazol-3-yl)-N-(7-{[(methylsulfonyl)amino]methyl}-2-phenylimidazo[1,2-a]pyridin-3-yl)-4-(trifluoromethyl) benzamide]
13 | Cn1ccc(-c2cc(C(=O)Nc3c(-c4ccccc4)nc4cc(CCN)ccn34)ccc2C(F)(F)F)n1 [Compound 100, N-[7-(2-aminoethyl)-2-phenylimidazo[1,2-a]pyridin-3-yl]-3-(1-methyl-1H-pyrazol-3-yl)-4-(trifluoromethyl) benzamide]
1.1 | CC(C)(O)c1ccn2c(NC(=O)c3cc(-c4ncccn4)c(C(F)(F)F)cc3F)c(-c3ccccc3)nc2c1 [Compound 53, 2-fluoro-N-[7-(1-hydroxy-1-methylethyl)-2-phenylimidazo[1,2-a]pyridin-3-yl]-5-pyrimidin-2-yl-4-(trifluoromethyl) benzamide]
5 | COC1CN(Cc2ccn3c(NC(=O)c4ccc(C(F)(F)F)c(-c5ccn(C)n5)c4)c(-c4ccccc4)nc3c2)C1 [Compound 45, N-{7-[(3-methoxyazetidin-1-yl)methyl]-2-phenylimidazo[1,2-a]pyridin-3-yl}-3-(1-methyl-1H-pyrazol-3-yl)-4-(trifluoromethyl) benzamide]
1.4 | Cn1ccc(-c2cc(C(=O)Nc3c(-c4ccccc4)nc4cc(CO)ccn34)ccc2C(F)(F)F)n1 [Compound 26, N-[7-(hydroxymethyl)-2-phenylimidazo[1,2-a]pyridin-3-yl]-3-(1-methyl-1H-pyrazol-3-yl)-4-(trifluoromethyl) benzamide]
1.2 | Cn1ccc(-c2cc(C(=O)Nc3c(-c4ccccc4)nc4cc(N5CCOCC5)ccn34)ccc2C(F)(F)F)n1 [Compound 88, 3-(1-methyl-1H-pyrazol-3-yl)-N-(7-morpholin-4-yl-2-phenylimidazo[1,2-a]pyridin-3-yl)-4-(trifluoromethyl) benzamide]
6.7 | Cn1ccc(-c2cc(C(=O)Nc3c(-c4ccccc4)nn4ccc(C(C)(C)O)cc34)ccc2C(F)(F)F)n1 [Compound 96, N-[5-(1-hydroxy-1-methylethyl)-2-phenylpyrazolo[1,5-a]pyridin-3-yl]-3-(1-methyl-1H-pyrazol-3-yl)-4-(trifluoromethyl) benzamide]
